Data: PMC8485325, “Penetrating the Blood-Brain Barrier with New Peptide–Porphyrin Conjugates Having anti-HIV Activity” (Bioconjugate Chemistry, 2021)
Where two headings read alike, the source gives them in different places. Ends that are not written are not given here.

Legend:
bEnd.3 cells = assay: Cell viability assay (CellTiter-Blue); type: cell-based, murine
Method: (§1) bEnd.3 cells were plated in fibronectin precoated 96-well flat-bottom clear black polystyrene plate (Corning, New York, USA) as previously described. Cells were then cultured in complete medium at 37 °C in a 5% CO2 atmosphere, with medium replaced every 2 days. […] Viability was evaluated by the CellTiter-Blue assay (Promega, Wisconsin, USA), based on resazurin reduction into highly fluorescent resorufin by metabolically active cells. By distinguishing metabolic from nonmetabolic cells, cytotoxicity can be indirectly determined. After incubation, cells were washed with PBS, pH 7.4, and 15 μL of CellTiterBlue reagent in 100 μL of complete medium was added to the cells and incubated for 1.5 h at 37 °C in 5% CO2. Fluorescence was measured at 590 nm, with excitation at 560 nm, using an Infinite F200 plate reader (Tecan, Switzerland). Complete medium and medium containing 0.25% Triton X-100 were used as positive and negative controls (100% and 0% viability), respectively. Cell viability (%) was determined using the following equation: [drawing 5] 5 where […] is the fluorescence emission of conjugate-treated cells, Fnontreated is the fluorescence emission of the control nontreated cells, and Fblank is the fluorescent emission of CellTiter reagent in complete medium without cells.

human erythrocytes = assay: Hemolysis assay; type: cell-based
Method: Plates were incubated for 1 h at 37 °C with 100 rpm stirring, then centrifuged for 5 min at 4000 rpm, 4 °C, and supernatants were transferred to a 96-well flat-bottom polystyrene plate (Corning). Hemolysis was assessed by hemoglobin (Hb) release, measured by absorbance at 415 nm in a Varioskan LUXTM microplate reader (Thermo Fisher Scientific, Inc.). As porphyrin and Hb spectra are partially overlapping, to exclude porphyrin interference in Hb quantification a blank reading of each PPC (no hRBCs, TN buffer +1% DMSO) was subtracted from each measurement. TN buffer (+1% DMSO, no conjugate) and hRBCs with 1% Triton X-100 were used as negative and positive controls, respectively. Hemolysis (%) was determined using the following equation: [drawing 6] 6 where Abstreated is the absorbance of hRBC treated with the conjugates, Absconjugate is the absorbance from each conjugate concentration without hRBCs, AbsTriton is the absorbance of Triton X-100 treated hRBCs, and Absbuffer is the absorbance of TN buffer alone. HC50 values were determined by GraphPad Prism 8 software using a log(inhibitor) vs normalized response (variable slope). Experiments were performed using 3 different blood donors.

[1] = Cell viability assay (CellTiter-Blue); type: cell-based, murine; details: for CC50 at 24 h: mouse
Method: as §1

bEnd.3 cell monolayers [2] = tested on: bEnd.3 cell monolayers
Method: (§2) Figure 4 PPCs translocation across a bEnd.3 in vitro BBB model. (A) bEnd.3 in vitro BBB model transwell system. The insert, or apex, corresponds to the blood side, while the base (bottom chamber) corresponds to the brain side. (B) After formation of a monolayer, 10 μM of each conjugate was added to the apical side of the tissue culture inserts. After incubation for 24 h, samples from the basolateral side were collected, and the percentage of translocation of each conjugate (black) was calculated. FD4 permeability (gray) was measured to determine monolayer integrity post-PPCs translocation.
After 24 h incubation with conjugates, an in vitro integrity assay was performed.[19] Briefly, cells were washed twice with PBS and once with DMEM medium without phenol red. Then, previously diluted 4 kDa fluorescein isothiocyanate-dextran (FD4) (Sigma-Aldrich, Spain) in DMEM without phenol red to an absorbance of 0.1 was added to the apical side and incubated for 2 h. Samples were collected from the apical and basolateral side, and fluorescence intensity was measured with λext = 493 nm and λem = 520 nm, using a Varioskan Lux plate reader. The integrity of the barrier was determined as follows: [drawing 2] 2 where Fi is the recovered fluorescence intensity, Fcells is the recovered fluorescence intensity from cells without FD4 incubation, FFD4 is the fluorescence intensity of total FD4 initially added to the transwell apical side, and FMedium is the fluorescence intensity of DMEM medium without phenol red.

HIV-1NL4-3 = assay: In vitro inhibition of HIV-1NL4-3 infection of TZM-bl cells (luciferase reporter); type: cell-based
Method: Viral supernatants harvested from pNL4-3-transfected HEK293T cells were titered through the Reed-Muench method[56] based on HIV-1NL4–3 infectivity against TZM-bl cell cultures. TZM-bl cells were seeded at 2 × 10^4 cells/well in tissue culture-treated 96-well microplates from Corning (Corning, NY, USA), and incubated for 24 h. Cells were then incubated with 2-fold serial dilutions of viral supernatants for 3 h, after which the supernatant was replaced with fresh complete medium. After 45 h, TZM-bl cell infection was quantified through luciferase reporter-gene expression levels, under the control of an HIV-1 TAT-dependent LTR promoter[57] using the Luc-Screen luciferase chemiluminescence detection system. Luminescence was measured in an Infinite M200 microplate reader from Tecan (Männedorf, Switzerland). […] Titration was performed with at least four replicates to allow accurate estimation of TCID50 in viral supernatants.
The inhibitory activity of conjugates on HIV-1NL4–3 entry into TZM-bl cells was evaluated as previously described.[58] TZM-bl cells were seeded at 2 × 10^4 cells/well in tissue culture-treated 96-well microplates and incubated for 24 h. HIV-1NL4–3 viral supernatants (100 or 10 TCID50/well) were then incubated for 1 h with 2-fold serial dilutions of either nonconjugated peptide and porphyrins or conjugates, after which the infection mixture was added to TZM-bl cells. Untreated cells (in the absence of peptide–porphyrin conjugate) were used as control. Virions were incubated with cells for 3 h, after which cells were washed to remove unbound virions and new medium was added. After 45 h, infection was quantified by the Luc-Screen chemiluminescence assay. Measurements were performed in an Infinite M200 microplate reader. […] At least three independent experiments were performed for each assay.

TZM-bl cells = type: cell-based
Method: TZM-bl Cell Viability Studies
The cytotoxic effects of each PPC on TZM-bl cell cultures were assessed to ensure that HIV inhibition was a result of the compounds effect on the virus and not on the host cells used in the assay. A resazurin reduction fluorometric assay was performed. Resazurin, the active compound in alamarBlue®, is a blue dye that can be reduced to a pink fluorescent intermediate, resorufin, as a result of cell metabolic activity.6 TZM-bl cells were seeded at 2x10^4 cells/well in tissue culture-treated 96-well microplates and incubated for 24 h. Cells were then incubated with serial dilutions (2-fold) of single peptide and porphyrins, or PPC, for 3 h, after which the mixture was replaced with fresh complete medium. Untreated cells (in the absence of peptide-porphyrin combinations) were used as a control. After 42 h, media was replaced with alamarBlue® reagent and incubated for an additional 3 h. Resazurin reduction was quantified by resorufin fluorescent emission intensity, measured in an Infinite M200 microplate reader. Fluorescence emission intensity was collected at 590 nm, using a fixed λ exc of 560 nm. Excitation and emission slits were 9 and 20 nm, respectively. Cell viability was calculated through the following formalism: […]
where I EI corresponds to the resorufin fluorescence emission intensity in the presence of EIs or combination, I control to the fluorescence emission intensity in the absence of EIs and I background to the background fluorescence emission from the non-reduced […]
P5, P4-MP, MP-L-P3 and P4-L-M - are presented here.
TZM-bl cell viability on the concentration range tested.
(1 picture or pasted object on this page, not shown here)
Figure S7. PPCs cytotoxic effects against TZM-bl cells. A resazurin reduction fluorometric assay, dependent on the cell metabolic activity, was used. Cell viability, normalized to the control in the absence of PPC, was measured against three concentrations of each individual PPC: MP-P3 (black), MP-P5 (white), P4-MP (red), MP-L-P3 (blue) and P4-L-MP (green).

bEnd.3 cell monolayers [3] = assay: In vitro BBB translocation assay (bEnd.3 transwell model)
Text: Assessment of PPC efficacy in BBB translocation was done in a transwell setup (Figure 4A) using bEnd.3 cell monolayers.[44] The bEnd.3 in vitro BBB model consists of a monolayer of cells expressing a range of essential BBB transporters, also bearing the low permeability characteristic of the BBB, suitable for this study.[44]−[46]
as §2
An in vitro BBB model consisting of endothelial cells growing on the apical side of a porous membrane was used.[46] bEnd.3 cells (ATTCC-CRL2299) were cultured as a monolayer on T-flasks in DMEM supplemented with 10% fetal bovine serum (FBS), 1% penicillin/streptomycin. Cells were grown in a humidified atmosphere of 5% CO2 at 37 °C (MCO-18AIC (UV), Sanyo, Japan) with the medium changed every other day. Cells were allowed to grow until confluence in a culture T-flask, and then carefully harvested with trypsin-EDTA and seeded (3500 cells/well) onto fibronectin-coated tissue culture 24-well inserts (transparent polyester membrane with 1.0 μm pores) (BD Falcon, USA). The medium was changed every other day for 10 days, after which cells were washed twice with 1× PBS and once with DMEM medium without phenol red. Next, conjugates diluted in DMEM without phenol red to a final concentration of 10 μM were added to the apical side of the in vitro BBB model (Figure 4A). Experiments were performed on different days using independently grown cell cultures.
The translocation of conjugates was determined by fluorescence intensity (λexc = 380 nm and λem = 625 nm for MP conjugates, and λexc = 380 nm and λem = 675 nm for PP conjugates). P3-CF and P5-CF, peptides labeled with 5(6)-Carboxyfluorescein (CF), were used as positive translocation controls (λexc = 492 nm and λem = 517 nm). After 24 h incubation, samples from the apical and basolateral side were collected and analyzed. Fluorescence was measured using a Varioskan Lux plate reader (Thermo Scientific, MA, USA). The percentage (%) of translocation was calculated using the following equation: [drawing 1] 1 where Fi is the recovered fluorescence intensity, Fcells is the recovered fluorescence intensity from cells without the conjugate, and Fconjugate is the fluorescence intensity of total peptide initially added to the transwell apical side.

P6-MP: mesoporphyrin IX coupled to the C-terminal Lys side chain of peptide P6 (SGTQEEYK-amide) (SGTQEEYK(mesoporphyrin IX)-NH2)
CC50 (bEnd.3 cells; read-out: CC50: 50% cytotoxic concentration toward bEnd.3 cells, 24 h, 6.25–50 μM range): > 50 µM
HC50: 50% lytic concentration for human erythrocytes (human erythrocytes; 1 h at 37 °C, 0.1–50 μM range): >50 µM

H-AGILKRW-NH2 [P3, AGILKRW-amide, reference compound]
CC50 ([1]; 24 h, 6.25–50 μM range): > 50 µM
HC50: 50% lytic concentration for human erythrocytes (human erythrocytes; 1 h at 37 °C, 0.1–50 μM range): >50 µM

PP-P3: protoporphyrin IX coupled to the N-terminal NH2 group of peptide P3 (AGILKRW-amide) ({protoporphyrin IX}-AGILKRW-NH2)
% Base (RFI), FD4 Permeability (monolayer integrity post-translocation) (bEnd.3 cell monolayers [2]): 7.2%
CC50 (bEnd.3 cells): > 50 µM

P4-PP: protoporphyrin IX coupled to the Lys side-chain NH2 group of peptide P4 (AGILKRWK-amide) (AGILKRWK-NH2; also: protoporphyrin IX on a Lys side chain, Lys not given here)
% Base (RFI), FD4 Permeability (monolayer integrity post-translocation) (bEnd.3 cell monolayers [2]): 9.9%
CC50 (bEnd.3 cells): > 50 µM

H-VQQLTKRFSL-NH2 [P1, reference compound]
CC50 ([1]; 24 h, 6.25–50 μM range): > 50 µM
HC50: 50% lytic concentration for human erythrocytes (human erythrocytes; 1 h at 37 °C, 0.1–50 μM range): >50 µM

O=C(O)CN(CCOCCOCCN(CC(=O)O)CC(=O)O)CC(=O)O [EGTA, reference compound]
% Base (RFI), FD4 Permeability (monolayer integrity post-translocation) (bEnd.3 cell monolayers [2]): 26.8%

MP-P3: mesoporphyrin IX coupled to the N-terminal amino group of peptide P3 (AGILKRW-amide) ({mesoporphyrin IX}-AGILKRW-NH2)
% Base (RFI), FD4 Permeability (monolayer integrity post-translocation) (bEnd.3 cell monolayers [2]): 10.2%
IC50 (HIV-1NL4-3; 10 TCDI50 per well (approximate physiological conditions of HIV brain infection), TZM-bl cells, read-out: IC50 HIV inhibition, 10 TCDI50): 1.38 ± 1.1 µM
IC50 (HIV-1NL4-3; 100 TCDI50 per well, TZM-bl cells, no-light, read-out: IC50 HIV inhibition, 100 TCDI50): 16.1 ± 1.3 µM
CC50 (bEnd.3 cells): 48.2 µM
TZM-bl cell viability (in words) (TZM-bl cells): did not alter significantly

C=CC1=C(C)c2cc3[nH]c(cc4nc(cc5[nH]c(cc1n2)c(C)c5CCC(=O)O)C(CCC(=O)O)=C4C)c(C)c3C=C [PP, protoporphyrin IX, reference compound]
BBB translocation (in words) (bEnd.3 cell monolayers [3]): translocated the monolayer
% Base (RFI), Translocation (bEnd.3 cell monolayers [3]; mouse, 24 h, 10 μM): 38.3%
% Base (RFI), FD4 Permeability (monolayer integrity post-translocation) (bEnd.3 cell monolayers [2]; mouse, 2 h, 10 μM): 8.7%
IC50 (HIV-1NL4-3; Human immunodeficiency virus 1, TZM-bl, read-out: IC50 HIV inhibition, 100 TCDI50): > 50 µM
CC50 at 24 h [1]: > 50 µM
HC50: 50% lytic concentration for human erythrocytes (human erythrocytes; human, 1 h, pH 7.4): >50 µM

CCC1=C(C)c2cc3[nH]c(cc4nc(cc5[nH]c(cc1n2)c(C)c5CCC(=O)O)C(CCC(=O)O)=C4C)c(C)c3CC [MP, mesoporphyrin IX, reference compound]
BBB translocation (in words) (bEnd.3 cell monolayers [3]; bEnd.3 monolayer in vitro model): translocated the monolayer
IC50 (HIV-1NL4-3; Human immunodeficiency virus 1, 100 TCDI50 per well, TZM-bl cells, no-light, read-out: IC50 HIV inhibition, 100 TCDI50): > 50 µM
CC50 at 24 h ([1]; bEnd.3 cells, 24 h, 6.25–50 μM range): > 50 µM
HC50: 50% lytic concentration for human erythrocytes (human erythrocytes; 1 h at 37 °C, 0.1–50 μM range): >50 µM

H-SGTQEEY-NH2 [P5, SGTQEEY-amide, reference compound]
CC50 [1]: > 50 µM
HC50: 50% lytic concentration for human erythrocytes (human erythrocytes; red cells of human, 1 h): >50 µM
